Assay results: patent US20160213499A1, “BIODEGRADABLE ENDOPROSTHESES AND METHODS FOR THEIR FABRICATION” (Elixir Medical Corporation, priority 2015, published 2016)

Test: Pharmacokinetic release profile of novolimus from a stent (FIG. 35)
Type: in vivo

tissue drug concentration (at 90 days): 0.5 ng/mg
drug released (in one month): over 85%
SMILES: CO[C@@H]1C[C@H](C[C@@H](C)[C@@H]2CC(=O)[C@H](C)/C=C(\C)[C@@H](O)[C@@H](OC)C(=O)[C@H](C)C[C@H](C)/C=C/C=C/C=C(\C)[C@@H](O)C[C@@H]3CC[C@@H](C)[C@@](O)(O3)C(=O)C(=O)N3CCCC[C@H]3C(=O)O2)CC[C@H]1O [novolimus, 16-O-desmethyl-rapamycin]
